Assays:
Assay in all cases: PDSP GPCR panel primary binding assays at 10 μM
Settings in all cases: primary assay
[1] = molecular target: T1, cloned human or rodent CNS receptors, channels, and transporters (PDSP panel) (Homo sapiens, UniProt P47898)
T1 construct: expressed in transfected cells
Summary of the method: (§1)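 Radioligand displacement at cloned human or rodent CNS targets: 46–47 primary binding assays run in quadruplicate at 10 μM. Targets where the compound displaced an average of >50% of radiolabeled standard ligand went to secondary binding in 11-point dose-response, in triplicate; none run for H3, PBR or GABAA.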

[2] = molecular target: T2, cloned human or rodent CNS receptors, channels, and transporters (PDSP panel) (Homo sapiens, UniProt P34969)
T2 construct: expressed in transfected cells
T2 sequence (P34969 whole entry): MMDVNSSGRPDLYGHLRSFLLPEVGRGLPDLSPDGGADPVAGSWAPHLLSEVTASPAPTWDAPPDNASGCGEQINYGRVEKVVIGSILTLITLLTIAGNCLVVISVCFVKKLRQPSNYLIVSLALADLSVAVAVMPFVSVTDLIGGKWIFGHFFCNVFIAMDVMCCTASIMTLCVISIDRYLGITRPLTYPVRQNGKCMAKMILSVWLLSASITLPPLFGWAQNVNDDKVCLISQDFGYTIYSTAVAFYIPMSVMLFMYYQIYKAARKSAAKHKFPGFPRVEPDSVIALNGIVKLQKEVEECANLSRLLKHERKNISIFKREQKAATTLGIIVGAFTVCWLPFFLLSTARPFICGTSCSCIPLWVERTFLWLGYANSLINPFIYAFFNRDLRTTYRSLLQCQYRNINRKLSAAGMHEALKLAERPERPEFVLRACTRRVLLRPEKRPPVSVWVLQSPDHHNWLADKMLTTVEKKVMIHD
Summary of the method: as §1

[3] = molecular target: T3, cloned human or rodent CNS receptors, channels, and transporters (PDSP panel) (Homo sapiens, UniProt P08172)
T3 construct: expressed in transfected cells
T3 sequence (P08172 1-466): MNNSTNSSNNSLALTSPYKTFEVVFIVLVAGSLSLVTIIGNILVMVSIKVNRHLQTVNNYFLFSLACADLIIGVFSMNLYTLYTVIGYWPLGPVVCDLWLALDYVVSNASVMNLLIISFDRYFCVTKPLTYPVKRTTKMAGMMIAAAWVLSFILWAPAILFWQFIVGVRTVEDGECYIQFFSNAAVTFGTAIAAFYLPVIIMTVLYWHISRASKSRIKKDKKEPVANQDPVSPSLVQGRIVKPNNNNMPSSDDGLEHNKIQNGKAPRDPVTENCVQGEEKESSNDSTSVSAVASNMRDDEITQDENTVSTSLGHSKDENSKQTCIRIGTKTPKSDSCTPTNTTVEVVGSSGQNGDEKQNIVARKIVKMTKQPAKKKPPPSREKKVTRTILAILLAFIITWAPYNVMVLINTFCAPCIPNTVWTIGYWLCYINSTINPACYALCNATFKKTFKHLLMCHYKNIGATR
Summary of the method: as §1

[4] = molecular target: T4, cloned human or rodent CNS receptors, channels, and transporters (PDSP panel) (Homo sapiens, UniProt P50406)
T4 construct: expressed in transfected cells
T4 sequence (P50406 whole entry): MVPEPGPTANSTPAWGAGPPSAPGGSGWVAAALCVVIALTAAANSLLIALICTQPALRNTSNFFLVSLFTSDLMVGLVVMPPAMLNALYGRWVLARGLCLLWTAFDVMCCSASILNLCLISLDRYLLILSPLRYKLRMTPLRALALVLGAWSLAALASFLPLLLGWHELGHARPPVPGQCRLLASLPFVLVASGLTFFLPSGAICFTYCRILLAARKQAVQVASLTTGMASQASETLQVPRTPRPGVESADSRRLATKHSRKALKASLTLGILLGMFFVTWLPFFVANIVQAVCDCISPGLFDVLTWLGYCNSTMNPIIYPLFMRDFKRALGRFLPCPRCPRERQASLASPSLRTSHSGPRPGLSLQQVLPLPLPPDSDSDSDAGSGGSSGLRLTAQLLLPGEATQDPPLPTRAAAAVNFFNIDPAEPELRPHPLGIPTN
Summary of the method: as §1

[5] = molecular target: T5, cloned human or rodent CNS receptors, channels, and transporters (PDSP panel) (Homo sapiens, UniProt P28221)
T5 construct: expressed in transfected cells
T5 sequence (P28221 whole entry): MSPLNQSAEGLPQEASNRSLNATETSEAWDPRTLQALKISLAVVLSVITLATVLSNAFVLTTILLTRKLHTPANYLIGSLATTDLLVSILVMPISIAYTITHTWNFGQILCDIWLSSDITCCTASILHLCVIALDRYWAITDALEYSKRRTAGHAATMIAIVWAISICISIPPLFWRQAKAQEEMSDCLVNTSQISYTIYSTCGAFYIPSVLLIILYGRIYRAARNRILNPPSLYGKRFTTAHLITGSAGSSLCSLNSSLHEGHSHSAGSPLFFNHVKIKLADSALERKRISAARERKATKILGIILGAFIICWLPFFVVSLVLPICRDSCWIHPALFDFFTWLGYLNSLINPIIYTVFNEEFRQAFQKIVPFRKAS
Summary of the method: as §1

[6] = molecular target: T6, cloned human or rodent CNS receptors, channels, and transporters (PDSP panel) (Homo sapiens, UniProt P08173)
T6 construct: expressed in transfected cells
T6 sequence (P08173 1-479): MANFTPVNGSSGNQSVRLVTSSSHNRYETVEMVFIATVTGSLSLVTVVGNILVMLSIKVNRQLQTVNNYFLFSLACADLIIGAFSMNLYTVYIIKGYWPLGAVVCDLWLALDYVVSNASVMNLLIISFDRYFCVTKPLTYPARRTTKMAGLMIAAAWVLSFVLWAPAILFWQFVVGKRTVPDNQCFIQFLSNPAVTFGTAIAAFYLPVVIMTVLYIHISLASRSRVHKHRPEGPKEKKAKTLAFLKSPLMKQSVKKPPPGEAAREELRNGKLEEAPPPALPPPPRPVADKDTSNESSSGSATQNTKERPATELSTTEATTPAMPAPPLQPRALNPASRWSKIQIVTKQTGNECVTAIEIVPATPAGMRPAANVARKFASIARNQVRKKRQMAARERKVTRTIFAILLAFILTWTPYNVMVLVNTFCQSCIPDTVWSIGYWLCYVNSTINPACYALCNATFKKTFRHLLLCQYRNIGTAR
Summary of the method: as §1

[7] = molecular target: T7, cloned human or rodent CNS receptors, channels, and transporters (PDSP panel) (Homo sapiens, UniProt P18089)
T7 construct: expressed in transfected cells
T7 sequence (P18089 1-450): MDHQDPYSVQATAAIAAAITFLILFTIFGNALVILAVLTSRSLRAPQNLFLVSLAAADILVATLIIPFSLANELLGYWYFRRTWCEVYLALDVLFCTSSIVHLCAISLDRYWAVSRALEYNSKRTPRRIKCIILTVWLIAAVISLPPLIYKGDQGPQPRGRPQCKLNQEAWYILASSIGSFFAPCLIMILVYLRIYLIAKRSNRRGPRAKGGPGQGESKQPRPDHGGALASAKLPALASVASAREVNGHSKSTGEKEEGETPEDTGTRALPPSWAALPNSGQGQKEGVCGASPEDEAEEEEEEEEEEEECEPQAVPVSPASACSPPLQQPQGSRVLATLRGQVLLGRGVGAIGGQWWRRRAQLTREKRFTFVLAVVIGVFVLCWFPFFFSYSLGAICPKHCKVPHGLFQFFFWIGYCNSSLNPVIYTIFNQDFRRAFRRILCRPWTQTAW
Summary of the method: as §1

[8] = Receptor 5-HT5A, 10 μM, mean of Inhibition 1-4
[9] = Receptor 5-HT7A, 10 μM, mean of Inhibition 1-4
[10] = Receptor M2, 10 μM, mean of Inhibition 1-4
[11] = Receptor 5-HT6, 10 μM, mean of Inhibition 1-4
[12] = Receptor 5-HT1D, 10 μM, mean of Inhibition 1-4
[13] = Receptor M4, 10 μM, mean of Inhibition 1-4
[14] = Receptor Alpha2B, 10 μM, mean of Inhibition 1-4

T1 sequence (P47898 whole entry): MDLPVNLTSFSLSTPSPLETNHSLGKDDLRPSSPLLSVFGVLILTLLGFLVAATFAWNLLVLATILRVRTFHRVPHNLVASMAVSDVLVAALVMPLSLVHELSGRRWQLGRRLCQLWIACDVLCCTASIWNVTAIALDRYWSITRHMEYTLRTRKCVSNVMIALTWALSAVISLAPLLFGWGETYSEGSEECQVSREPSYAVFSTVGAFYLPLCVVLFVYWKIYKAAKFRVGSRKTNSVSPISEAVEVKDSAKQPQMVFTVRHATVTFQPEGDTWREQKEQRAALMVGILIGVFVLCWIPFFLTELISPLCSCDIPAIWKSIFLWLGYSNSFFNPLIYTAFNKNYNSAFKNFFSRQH

For `c1cn2cc(-c3ccc4cn[nH]c4c3)nc(Nc3ccc(N4CCOCC4)cc3)c2n1` [UNC10302678A, Entospletinib (GS-9973)], the “Inhibition 1” value ([1]; Receptor 5-HT5A, 10 μM) was 7.17%, the “Inhibition 2” value ([1]; Receptor 5-HT5A, 10 μM) was -43.49% and the “Inhibition 3” value ([1]; Receptor 5-HT5A, 10 μM) was -3.12%. For the same compound, the “Inhibition 4” value ([1]; Receptor 5-HT5A, 10 μM) was -6.68%, the Mean % [1, 8] was -11.53% and the “Inhibition 1” value ([2]; Receptor 5-HT7A, 10 μM) was 7.05%. For the same compound, the “Inhibition 2” value ([2]; Receptor 5-HT7A, 10 μM) was 11.23%, the “Inhibition 3” value ([2]; Receptor 5-HT7A, 10 μM) was 9.37% and the “Inhibition 4” value ([2]; Receptor 5-HT7A, 10 μM) was 35.72%. The Mean % [2, 9] was 15.84%, the “Inhibition 1” value ([3]; Receptor M2, 10 μM) was -17.67% and the “Inhibition 2” value ([3]; Receptor M2, 10 μM) was -16.44%. The “Inhibition 3” value ([3]; Receptor M2, 10 μM) was -12.26%, the “Inhibition 4” value ([3]; Receptor M2, 10 μM) was -13.73% and the Mean % [3, 10] was -15.03%. The “Inhibition 1” value ([4]; Receptor 5-HT6, 10 μM) was -41.25%, the “Inhibition 2” value ([4]; Receptor 5-HT6, 10 μM) was -29.65% and the “Inhibition 3” value ([4]; Receptor 5-HT6, 10 μM) was -11.39%. The “Inhibition 4” value ([4]; Receptor 5-HT6, 10 μM) was -15.68%, the Mean % [4, 11] was -24.49% and the “Inhibition 1” value ([5]; Receptor 5-HT1D, 10 μM) was 30.71%. The “Inhibition 2” value ([5]; Receptor 5-HT1D, 10 μM) was 10.31%, the “Inhibition 3” value ([5]; Receptor 5-HT1D, 10 μM) was -25.09% and the “Inhibition 4” value ([5]; Receptor 5-HT1D, 10 μM) was 3.23%. The Mean % [5, 12] was 4.79%, the “Inhibition 1” value ([6]; Receptor M4, 10 μM) was 35.72% and the “Inhibition 2” value ([6]; Receptor M4, 10 μM) was 0.8%. The “Inhibition 3” value ([6]; Receptor M4, 10 μM) was 6.09%, the “Inhibition 4” value ([6]; Receptor M4, 10 μM) was 23.54% and the Mean % [6, 13] was 16.54%. The “Inhibition 1” value ([7]; Receptor Alpha2B, 10 μM) was 1.15%, the “Inhibition 2” value ([7]; Receptor Alpha2B, 10 μM) was 1.83% and the “Inhibition 3” value ([7]; Receptor Alpha2B, 10 μM) was -12.73%. The “Inhibition 4” value ([7]; Receptor Alpha2B, 10 μM) was -4.05% and the Mean % [7, 14] was -3.45%.

For MDL 28170 [UNC10302675A], the Mean % ([1]; 5-HT5A, mean inhibition) was -1.67%, the “Inhibition 1” value ([1]; 5-HT5A, replicate 1) was -0.61% and the “Inhibition 2” value ([1]; 5-HT5A, replicate 2) was -2.73%. The “Inhibition 3” value ([1]; 5-HT5A, replicate 3) was -12.06%, the “Inhibition 4” value ([1]; 5-HT5A, replicate 4) was 8.72% and the Mean % ([2]; 5-HT7A, mean inhibition) was 12.48%. The “Inhibition 1” value ([2]; 5-HT7A, replicate 1) was 4.73%, the “Inhibition 2” value ([2]; 5-HT7A, replicate 2) was 10.46% and the “Inhibition 3” value ([2]; 5-HT7A, replicate 3) was 19.29%. The “Inhibition 4” value ([2]; 5-HT7A, replicate 4) was 15.42%, the Mean % ([3]; M2, mean inhibition) was 1.32% and the “Inhibition 1” value ([3]; M2, replicate 1) was -8.82%. For the same compound, the “Inhibition 2” value ([3]; M2, replicate 2) was -11.77%, the “Inhibition 3” value ([3]; M2, replicate 3) was 0.03% and the “Inhibition 4” value ([3]; M2, replicate 4) was 25.84%. The Mean % ([4]; 5-HT6, mean inhibition) was -4.53%, the “Inhibition 1” value ([4]; 5-HT6, replicate 1) was 18.94% and the “Inhibition 2” value ([4]; 5-HT6, replicate 2) was -17.59%. For the same compound, the “Inhibition 3” value ([4]; 5-HT6, replicate 3) was -16%, the “Inhibition 4” value ([4]; 5-HT6, replicate 4) was -3.45% and the Mean % ([5]; 5-HT1D, mean inhibition) was 5%. The “Inhibition 1” value ([5]; 5-HT1D, replicate 1) was 13.22%, the “Inhibition 2” value ([5]; 5-HT1D, replicate 2) was 2.39% and the “Inhibition 3” value ([5]; 5-HT1D, replicate 3) was 4.89%. For the same compound, the “Inhibition 4” value ([5]; 5-HT1D, replicate 4) was -0.52%, the Mean % ([6]; M4, mean inhibition) was 7.01% and the “Inhibition 1” value ([6]; M4, replicate 1) was 5.86%. For the same compound, the “Inhibition 2” value ([6]; M4, replicate 2) was -14.36%, the “Inhibition 3” value ([6]; M4, replicate 3) was 13.67% and the “Inhibition 4” value ([6]; M4, replicate 4) was 22.85%. The Mean % ([7]; Alpha2B, mean inhibition) was 5.87%, the “Inhibition 1” value ([7]; Alpha2B, replicate 1) was 22.44% and the “Inhibition 2” value ([7]; Alpha2B, replicate 2) was -15.29%. For the same compound, the “Inhibition 3” value ([7]; Alpha2B, replicate 3) was -0.28% and the “Inhibition 4” value ([7]; Alpha2B, replicate 4) was 16.62%.

For `Cl.NC(=O)c1cnc(N[C@@H]2CCCC[C@@H]2N)nc1Nc1cccc(-n2nccn2)c1` [UNC10302682A, P505-15 (PRT06207 HCl)], the “Inhibition 1” value ([1]; Receptor 5-HT5A, 10 μM) was -3.51%, the “Inhibition 2” value ([1]; Receptor 5-HT5A, 10 μM) was -8.26% and the “Inhibition 3” value ([1]; Receptor 5-HT5A, 10 μM) was 4.4%. For the same compound, the “Inhibition 4” value ([1]; Receptor 5-HT5A, 10 μM) was 6.38%, the Mean % [1, 8] was -0.25% and the “Inhibition 1” value ([2]; Receptor 5-HT7A, 10 μM) was 33.86%. The “Inhibition 2” value ([2]; Receptor 5-HT7A, 10 μM) was 20.22%, the “Inhibition 3” value ([2]; Receptor 5-HT7A, 10 μM) was 54.31% and the “Inhibition 4” value ([2]; Receptor 5-HT7A, 10 μM) was 52.91%. The Mean % [2, 9] was 40.33%, the “Inhibition 1” value ([3]; Receptor M2, 10 μM) was -1.69% and the “Inhibition 2” value ([3]; Receptor M2, 10 μM) was 2.24%. For the same compound, the “Inhibition 3” value ([3]; Receptor M2, 10 μM) was -4.88%, the “Inhibition 4” value ([3]; Receptor M2, 10 μM) was 1.51% and the Mean % [3, 10] was -0.71%. For the same compound, the “Inhibition 1” value ([4]; Receptor 5-HT6, 10 μM) was -1.07%, the “Inhibition 2” value ([4]; Receptor 5-HT6, 10 μM) was -19.49% and the “Inhibition 3” value ([4]; Receptor 5-HT6, 10 μM) was -2.98%. The “Inhibition 4” value ([4]; Receptor 5-HT6, 10 μM) was -7.9%, the Mean % [4, 11] was -7.86% and the “Inhibition 1” value ([5]; Receptor 5-HT1D, 10 μM) was 74.44%. The “Inhibition 2” value ([5]; Receptor 5-HT1D, 10 μM) was 57.78%, the “Inhibition 3” value ([5]; Receptor 5-HT1D, 10 μM) was 54.87% and the “Inhibition 4” value ([5]; Receptor 5-HT1D, 10 μM) was 71.94%. The Mean % [5, 12] was 64.76%, the “Inhibition 1” value ([6]; Receptor M4, 10 μM) was 24.23% and the “Inhibition 2” value ([6]; Receptor M4, 10 μM) was 6.78%. For the same compound, the “Inhibition 3” value ([6]; Receptor M4, 10 μM) was 21.48%, the “Inhibition 4” value ([6]; Receptor M4, 10 μM) was 18.49% and the Mean % [6, 13] was 17.75%. For the same compound, the “Inhibition 1” value ([7]; Receptor Alpha2B, 10 μM) was 4.86%, the “Inhibition 2” value ([7]; Receptor Alpha2B, 10 μM) was 6.29% and the “Inhibition 3” value ([7]; Receptor Alpha2B, 10 μM) was -7.3%. The “Inhibition 4” value ([7]; Receptor Alpha2B, 10 μM) was -0.22% and the Mean % [7, 14] was 0.91%.

— publication PMC9005681, “Use of AD Informer Set compounds to explore validity of novel targets in Alzheimer's disease pathology” (Alzheimer's & Dementia : Translational Research & Clinical …, 2022)
